Consider 10 compounds from patent US8236824B2, “N-(pyrazole-3-yl)-benzamide derivatives as glucokinase activators” (Merck Patent Gesellschaft mit Beschränkter Haftung, priority 2007, dated 2012).

The structures appear in SMILES notation.

The target of this test is T1, glucokinase (GK), human enzyme (Homo sapiens, UniProt P35557).
T1 sequence (P35557 1-465): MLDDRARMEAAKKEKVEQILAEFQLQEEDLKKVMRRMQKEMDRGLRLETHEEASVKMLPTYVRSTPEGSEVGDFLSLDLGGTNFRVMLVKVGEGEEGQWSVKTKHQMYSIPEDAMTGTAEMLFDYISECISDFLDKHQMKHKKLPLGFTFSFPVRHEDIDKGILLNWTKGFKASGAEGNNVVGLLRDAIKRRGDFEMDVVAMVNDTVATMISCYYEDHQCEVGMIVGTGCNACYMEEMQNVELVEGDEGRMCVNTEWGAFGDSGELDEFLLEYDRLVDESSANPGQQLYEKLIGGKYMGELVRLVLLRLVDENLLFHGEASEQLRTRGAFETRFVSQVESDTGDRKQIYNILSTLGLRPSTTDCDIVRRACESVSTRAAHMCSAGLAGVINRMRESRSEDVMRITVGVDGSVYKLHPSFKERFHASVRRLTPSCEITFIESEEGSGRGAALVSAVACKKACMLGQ
The experiment in a line: Glucokinase Activation Screening Assay (coupled enzyme assay with PK/LDH, NADH decline at 340 nm). It is filed as biochemical. The conditions noted are these: 2 mM glucose. As for the experimental part: Glucokinase Activation Screening Assay
GK activity (human or rat enzyme) is measured by an coupled enzyme assay using pyruvate kinase (PK) and lactate dehydrogenase (LDH) as coupling enzymes. GK activity is calculated from the decline in NADH monitored photometrically with a microliter plate (MTP) reader at 340 nm. For screening purposes, the GK assay is routinely run in a 384-MTP format, in a total volume of 33 μl/well. 10 μl of the ATP-regeneration solution (in HEPES-buffer*, pH 7.0, 6.73 U/ml pyruvate kinase, 6.8 U/ml lactate dehydrogenase) and 10 μl of the glucokinase-/glucose solution (15 μg/ml, 6.6 mM glucose in HEPES-buffer*, pH 7.0; the concentration of the glucose stock-solution was 660 mM in Millipore H2O) were mixed together with 3 μl of a 10% DMSO solution (in HEPES-buffer*, pH 7.0) containing […] the amounts of the compounds to achieve final compound concentrations in the range between 1 nM to 30 μM (sometimes 300 μM) in the assay solution (s. below). The solutions were mixed for 5 sec, and after a centrifugation at 243×g for 5 min, the solutions were preincubated for 25 min at room temperature.
The reaction was started by the addition of 10 μl of the NADH-/ATP-solution (4.29 mM NADH, 4.95 mM ATP, in HEPES-buffer*). The MTP was shaken for 5 sec., and then, the absorbance at 340 nm was monitored continuously in a MTP-reader (TECAN Spectro fluor plus) for the next 27 min (with a MTP-cycling time of 199 sec.). The final concentrations of the various components were as follows: 49.5 mM Hepes, pH 7.0, 1.49 mM PEP, 1.3 mM NADH, 49.5 mM KCl, 4.96 mM MgCl2, 1.5 mM Mg-ATP, 1.98 mM DTT, 2.04 U/ml pyruvate kinase, 2.06 U/milactate-dehydrogenase, 0.91% DMSO, 0.15 μg/well glucokinase, and test compounds in the range between 1 nM and 300 μM.
The change in the optical density (ΔOD340 nm) in the presence of the compound was expressed relative to the ΔOD340 nm, ctrl of the control incubation (in the presence of 2 mM glucose and 0.91% DMSO), taking into account the optical density of the blank sample (incubation in the absence of 2 mM glucose). For the determination of the half maximal effective concentration (EC50), the %-Ctrl-values were plotted in a semi-logarithmic graph against the conc. of the compound of interest. The data points were fitted to a sigmoid curve function (f(x)=((%-Ctrlmax-%-Ctrlmin)/(1−(EC50/x**^n(Hill)))%-Ctrlmin)) by a non-linear regression analysis. • Hepes-buffer (50 mM Hepes, pH 7.0, 5 mM MgCl2, 50 mM KCl, 1.5 mM PEP, 0.1% BSA). DTT was added to the Hepes-buffer from a 200× stock solution (in Millipore H2O) freshly each day. The final concentration of DTT in the Hepes-buffer is 2 mM. Culture of Pancreatic INS-1 Cells
A word on the EC50: it is the concentration needed to bring the measured effect to its halfway point. The low end stands for higher potency in that assay, the high end for lower potency in that assay. The compound `CC(C)Oc1cc(OCc2ccccc2)cc(C(=O)Nc2ccn(Cc3ccccn3)n2)c1` [A1, 3-Benzyloxy-5-isopropoxy-N-(1-pyridine-2-ylmethyl-1H-pyrazol-3-yl)-benzamide] gave an EC50 of 1000 to 10000 nM.

`Cc1cc(NC(=O)c2cc(OCc3ccccc3)cc(OC(C)C)c2)nn1Cc1ccccn1` [A2, 3-Benzyloxy-5-isopropoxy-N-(5-methyl-1-pyridine-2-ylmethyl-1H-pyrazole-3-yl)-benzamide]: the EC50 fell in the range of 1000 to 10000 nM.

Consider `CC(C)Oc1cc(OCc2ccccc2)cc(C(=O)Nc2ccn(Cc3ccccc3)n2)c1` [A3, 3-Benzyloxy-N-(1-benzyl-1H-pyrazol-3-yl)-5-isopropoxy-benzamide], for which the EC50 fell in the range of 10 to 1000 nM.

In turn, `COC[C@H](C)Oc1cc(O[C@@H](C)Cc2ccccc2)cc(C(=O)Nc2ccn(Cc3ccccc3)n2)c1` [A4] displayed an EC50 of 10 to 1000 nM.

`COC[C@H](C)Oc1cc(O[C@@H](C)Cc2ccccc2)cc(C(=O)Nc2ccn(Cc3ccccn3)n2)c1` [A5, 3-((S)-2-Methoxy-1-methyl-ethoxy)-5-((S)-1-methyl-2-phenyl-ethoxy)-N-(1-pyridine-2-ylmethyl-1H-pyrazole-3-yl)-benzamide] returned an EC50 of 10 to 1000 nM.

Regarding `CC(C)Oc1cc(OCCc2ccsc2)cc(C(=O)Nc2ccn(Cc3ccccn3)n2)c1` [A6, 3-isopropoxy-N-(1-pyridine-2-ylmethyl-1H-pyrazole-3-yl)-5-(2-thiophene-3-yl-ethoxy)-benzamide], the half-maximal effective concentration (EC50) was in the range of 10 to 1000 nM.

Compound `COC[C@H](C)Oc1cc(O[C@@H](C)Cc2ccccc2)cc(C(=O)Nc2ccn(Cc3cccnc3)n2)c1` [A7, 3-((S)-2-methoxy-1-methyl-ethoxy)-5-((S)-1-methyl-2-phenyl-ethoxy)-N-(1-pyridine-3-ylmethyl-1H-pyrazole-3-yl)-benzamide] displayed an EC50 of 10 to 1000 nM.

Turning to `COC[C@H](C)Oc1cc(O[C@@H](C)Cc2ccccc2)cc(C(=O)Nc2ccn(Cc3ccncc3)n2)c1` [A8, 3-((S)-2-methoxy-1-methyl-ethoxy)-5-((S)-1-methyl-2-phenyl-ethoxy)-N-(1-pyridine-4-ylmethyl-1H-pyrazole-3-yl)-benzamide], the EC50 lay within 10 to 1000 nM.

As to `CC(C)Oc1cc(OCCc2ccsc2)cc(C(=O)Nc2ccn(Cc3ccccc3)n2)c1` [A9, N-(1-Benzyl-1H-pyrazol-3-yl)-3-isopropoxy-5-(2-thiophen-3-yl-ethoxy)-benzamide], the concentration for a half-maximal effect (EC50) fell in the range of 10 to 1000 nM.

Take `COC[C@H](C)Oc1cc(Oc2ccc(S(C)(=O)=O)cc2)cc(C(=O)Nc2ccn(Cc3cccnc3)n2)c1` [A10]: the EC50 lay in the range of 10 to 1000 nM.
